The source of these data is US20250381165A1, “Method of Use for Benzofuran Compounds” (Tampa Bay Research Institute, Inc., priority 2024, published 2025).

Test [1] has as its system DC2.4 cells (B3Z activation). Put plainly: Pathway inhibitor studies in DC2.4/B3Z assay. The class given is cell-based, murine. Particulars: DC2.4, 3 μg/mL BFA, 25 μg/mL BzFβ 6 h, 0.5 nM SIINFEKL
Here is the method: […]. The cytotoxicity of all inhibitors was assessed using CellTiter96 Aqueous One (Promega (Madison WI, USA); cat. no. G3580).
. The cells were then washed 2× before addition of BzFβ. Cells exposed to the other inhibitors were incubated with an appropriate concentration of each inhibitor, seen in Table 1 in cDMEM at 37° C., 5% CO2. […]. Cells were then incubated for 6 h. Before B3Z addition the inhibitor and BzFβ were removed, and the cells washed with warm DPBS. If testing peptide presentation, the DC2.4 cells were pulsed with 0.5 nM […] for 1 h prior to being cocultured with B3Z.

For test [2], the system named is E.G7-OVA cells (B3Z activation). Description: B3Z activation by E.G7-OVA cells. Type of test: cell-based, murine. How it is done: Activation of B3Z T cell hybridoma cells was assessed following their exposure to various MHC class I H-2K^b positive cell lines presenting the SIINFEKL peptide. To stimulate β-gal production in the B3Z, the H-2Kb murine cell lines, DC2.4 and E.G7-OVA were plated at a density of 2.5 or 5×10^4 cells/well (100 μL/well in 96 well plates) and cultured overnight at 37° C. in an atmosphere containing 5% CO2 and 95% humidity. The cells were washed with DPBS and then treated for 1-24 h with the indicated concentrations of BzFβ suspended in complete media. Vehicle controls were always included. Cells being examined for the uptake and processing of soluble OVA were co-treated with BzFβ and 0.5 mg/mL grade V chicken ovalbumin for 6-24 h, and then washed and cocultured with B3Z as indicated.
Following the pretreatment with BzFβ, the media was removed from adherent cells (DC2.4 or B16F10) or was removed following pelleting of nonadherent cells in the plate. The cells were then pulsed with various concentrations of SIINFEKL peptide (typically 0.5 nM was used) for the indicated lengths of time (typically 1 h). The cells were washed and then 100 μL of complete DMEM containing 5×10^4 B3Z cells was added. […] The absorbance at 560 nm (700 nm for background) was intermittently monitored using a BioTek Synergy HTX multimode microplate reader (Winooski, VT) to detect β-gal activity. […]

As to `O=C(O)/C=C/c1ccc2occc2c1` [BzFβ, (2E)-3-(1-benzofuran-5-yl)prop-2-enoic acid], the “B3Z activation with SIINFEKL in presence of BFA” value in test [1] is recorded as “unaffected”. The “ability of E.G7-OVA cells to activate B3Z” value in test [2] (0-100 μg/mL BzFβ) is “dose-dependently reduced”. Further, the “lowest dose with significant effect” value in test [2] (E.G7-OVA, B3Z assay) was 6.25 µg/mL.
